Measurements from patent US11903931B2, “Salts of selective estrogen receptor degraders” (InventisBio Co., Ltd., priority 2018, dated 2024).
Counter-ions that a name gives are not always drawn.

Assays:
ER = biological target: T1, ER (Homo sapiens, UniProt P03372); conditions: intramuscular injection monthly; cited from earlier work
T1 sequence (P03372 1-595): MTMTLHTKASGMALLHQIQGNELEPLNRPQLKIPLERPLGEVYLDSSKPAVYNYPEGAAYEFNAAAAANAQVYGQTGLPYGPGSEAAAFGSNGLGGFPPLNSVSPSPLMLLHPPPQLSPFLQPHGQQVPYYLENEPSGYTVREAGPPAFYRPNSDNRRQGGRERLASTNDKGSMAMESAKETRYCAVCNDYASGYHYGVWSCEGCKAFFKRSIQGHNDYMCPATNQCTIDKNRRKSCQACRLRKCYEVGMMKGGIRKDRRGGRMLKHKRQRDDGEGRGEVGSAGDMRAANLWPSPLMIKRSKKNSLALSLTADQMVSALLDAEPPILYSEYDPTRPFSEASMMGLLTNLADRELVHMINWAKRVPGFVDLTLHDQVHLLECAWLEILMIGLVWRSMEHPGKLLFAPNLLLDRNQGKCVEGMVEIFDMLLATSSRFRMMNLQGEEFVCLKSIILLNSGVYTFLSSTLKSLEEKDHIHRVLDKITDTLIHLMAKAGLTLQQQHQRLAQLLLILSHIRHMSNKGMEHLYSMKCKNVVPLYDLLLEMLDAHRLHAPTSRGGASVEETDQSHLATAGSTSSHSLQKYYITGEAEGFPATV

ER+ breast cancer cells = conditions: cited from earlier work
[1] = Dynamic moisture sorption analysis (DVS); format: physicochemical
Description: Dynamic moisture sorption analysis (DVS): DVS was determined using IGAsorp (Hiden Isochema, UK). The sample was tested at a targeted RH (relative humidity) of 10 to 90% full cycle in step mode. The analysis was performed in 10% RH increments.

[2] = Solubility test in pH 1.2 or pH 6.8 buffer (saturated solutions, HPLC; remaining solids by XRPD); format: physicochemical; conditions: for XRPD analysis of remaining solids after solubility test: 24 hours, medium not stated; for XRPD patterns at 24 h: remaining solid
Description: For solubility test: About 20 mg of Compound FA, L-lysine salt and meglumine salt (Form I) were weighed into vials, added 3 mL of pH1.2 or pH 6.8 buffer to make saturated solutions. All suspensions were kept shaking with 200 rpm at room temperature for up to 24 hours. […] At 24 hours, remaining solids were collected and determined by XRPD.

[3] = compared with fulvestrant, GDC-0810 and AZD9496; cited from earlier work
[4] = Solid stability test at 40° C./75% RH for 8 days (HPLC, XRPD); format: physicochemical; conditions: for Physical and chemical stability / XRPD patterns after storage: 40° C./75% RH for 8 days; for Purity at 8 days / Purity at 0 day: HPLC; for Purity at 8 days: after 40° C./75% RH for 8 days; for Purity at 0 day: start of stability test
Description: HPLC ANALYSIS: a representative HPLC method is shown below, which can be used, for example, to analyze the purity, solubility, and stability of the salts herein.
For stability test: About 20 mg of Compound FA, L-lysine salt and meglumine salt (Form I) were weighed into vials, and put at the condition of 40° C./75% RH for 8 days. At 0 and 8 days, the solid sample was dissolved using acetonitrile/water (1/1) to make a solution with the concentration of 0.2 mg/mL. Sample solutions were analyzed by HPLC and solid samples were examined by XRPD.

[5] = Solid stability test of Form I at 25° C./92.5% RH for 10 days (XRPD); format: physicochemical
Description: Solid stability test of Form I at 92.5% RH for 10 days: About 20 mg of meglumine salt Form I was put into the condition of 25° C./92.5% RH for 10 days. At 10 days, the sample was analyzed by XRPD.

[6] = Physical treatment (grinding) of Form I; format: physicochemical; conditions: grinded for 2 min and 5 min
Description: Physical treatment of Form I: Form I of meglumine salt was grinded for 2 min and 5 min. After grinding, the crystallinity declined, but the crystal form was still Form I.

[7] = Meglumine salt form interconversion study (slurry in IPA or water, XRPD); format: physicochemical; conditions: for Final crystal form: Water
Description: Interconversion study: Interconversion studies were carried out by mixing the same amount of different form solids in IPA or water, respectively. Suspensions were kept stirring at room temperature and 60° C. for several days, during which suspensions were filtrated and analyzed by XRPD.

XRPD pattern after DVS test [1]	Moisture adsorbed (DVS) ([1]; at 80% RH)	XRPD analysis of remaining solids after solubility test [2]	Stability in pH 1.2 buffer solution (HPLC) ([2]; pH 1.2 buffer)	XRPD patterns at 24 h ([2]; pH 1.2 buffer)	XRPD patterns at 24 h ([2]; pH 6.8 buffer)	Physical and chemical stability [4]	XRPD patterns after storage [4]	Purity at 8 days [4]	Purity at 0 day [4]	Crystal form after storage (XRPD) [5]	Crystal form after grinding [6]	Crystallinity after grinding [6]	Final crystal form ([7]; 25° C.)	Final crystal form ([7]; 60° C.)	Relative stability of crystal forms ([7]; in water at 60° C. and IPA)	Structure (SMILES)	ER degradation in clinical samples (ER)	Growth of ER+ breast cancer cells (ER+ breast cancer cells)	Human hepatocyte clearance [3]
–	–	–	–	–	–	–	–	–	–	–	–	–	–	–	–	C[C@]12CC[C@@H]3c4ccc(O)cc4C[C@@H](CCCCCCCCC[S+]([O-])CCCC(F)(F)C(F)(F)F)[C@H]3[C@@H]1CC[C@@H]2O (stereo partly drawn) [fulvestrant]	~50%	–	–
didn't change	about 1.7%	became lower	unstable	Low crystallinity	Low crystallinity	physically and chemically stable	not changed	96.31 Area %	98.02 Area %	–	–	–	–	–	–	C[C@@H]1Cc2c([nH]c3ccccc23)[C@@H](c2c(Cl)cc(/C=C/C(=O)O)cc2Cl)N1CC(C)(C)F [Compound FA, (E)-3-(3,5-dichloro-4-((1R,3R)-2-(2-fluoro-2-methylpropyl)-3-methyl-2,3,4,9-tetrahydro-1H-pyrido[3,4-b]indol-1-yl)phenyl)acrylic acid]	–	inhibited the growth	better human hepatocyte clearance
–	–	became lower	unstable	No change	Low crystallinity	physically and chemically stable	not changed	99.66 Area %	99.68 Area %	remained unchanged	still Form I	declined	Dihydrate	Form I	most stable crystal form	C[C@@H]1Cc2c([nH]c3ccccc23)[C@@H](c2c(Cl)cc(/C=C/C(=O)O)cc2Cl)N1CC(C)(C)F [Meglumine salt, Meglumine (E)-3-(3,5-dichloro-4-((1R,3R)-2-(2-fluoro-2-methylpropyl)-3-methyl-2,3,4,9-tetrahydro-1H-pyrido[3,4-b]indol-1-yl)phenyl)acrylate]	–	–	–
